Data: paper PMC6899342 (PeerJ, 2019)
Where no end group is shown, it is not given here.

Molecular target: T1, PCV2 Cap protein (Porcine circovirus 2, UniProt O56129)
T1 construct: made in house; host or cells: E. coli BL21 (pET28a-Cap)
Assay: biochemical
Format: binding, porcine circovirus type II
Settings: for kon: pH 7.4, read-out: ka
Experimental: The equilibrium binding constant (KD) of peptides was determined using an Open SPR instrument (Nicoya, Canada). First, purified Cap protein was covalently immobilized on a carboxyl Au colloidal nanoparticles chip. […] Then, all peptides were respectively dissolved in PBS at predetermined concentrations and injected to detect the resonance signal changes. In each cycle, 300 µL of peptide solution was injected into the flow cell of the Cap chip for 5 min. Finally, the data were assessed to determine the association constant (ka, 1/Ms), the dissociation constant (kd, 1/s), the equilibrium binding constant (KD, M), and KD = kd/ka via Trace Drawer 1.7 (Nicoya, Canada).
All the steps were performed according to manufacturer’s instructions. First, the activation of carboxyl chip: the chip is activated by the EDC/NHS reagent in the amine coupling kit. […] The last step is to block the chip with blocking buffer. In every step, The 300 μL sample was flowed through the chip for 5 min at a constant flow rate of 20 μL/min.
Dissociation constant Kd represents the ratio of AB (ie, AB) dissociated in unit time to the initial AB before dissociation, which represents the speed of the dissociation reaction.Equilibrium dissociation constant KD =kd/ka, KD unit is M (mol/L)
1:1 binding interaction model represents the binding mode of ligand and target according to 1:1. The1:1 binding interaction model is a differential equation:
dY/dt = (k a * c - k d )* Y

T1 sequence (O56129 whole entry): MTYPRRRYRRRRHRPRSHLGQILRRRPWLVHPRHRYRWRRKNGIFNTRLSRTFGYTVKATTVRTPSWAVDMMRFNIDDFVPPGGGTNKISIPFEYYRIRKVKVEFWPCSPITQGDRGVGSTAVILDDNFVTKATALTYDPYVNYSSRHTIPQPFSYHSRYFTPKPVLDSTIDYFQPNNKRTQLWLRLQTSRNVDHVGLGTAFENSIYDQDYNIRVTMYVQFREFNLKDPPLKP

Substance	Kd [µM]	kon [M⁻¹ s⁻¹]
KWWQSWEW [Peptide L13]	9.97	335
RKHKRWK [Peptide L7]	1.06	856
WQSWEWTG [Peptide L9]	6.71	855
WQGMMKEE [Peptide L4]	1.23	1920
